Data: patent publication US12702715B2, “Targeted RNA degradation allows precision repurposing of protein-targeted small molecule medicines to RNA” (University of Florida Research Foundation, Incorporated, priority 2020, dated 2026)

Tested on: pre-miR-21
Experiment: In vitro Dicer processing of pre-miR-21
Format: biochemical, human
Protocol: In vitro Dicer Processing. The pre-miR-21 WT RNA or pre-miR-21 base pair mutant were 5′-end labeled with T4 polynucleotide kinase and [γ-^32P] ATP as described previously^7. The RNA was folded in 1× Reaction Buffer (Genlantis) by heating at 55° C. for 5 min and cooling slowly to room temperature on the benchtop. The mixture was then supplemented with 2.5 mM MgCl2 and 1 mM ATP. The Dicer processing reaction was performed as described previously^6. The cleavage products were resolved on a 15% polyacrylamide denaturing gel and imaged using a Molecular Dynamics Typhoon phosphorimager and quantified with QuantityOne software from Bio-Rad.

**Q.** With `CN1CCN(c2ccc3nc(-c4c(N)c5c(F)cccc5[nH]c4=O)[nH]c3c2)CC1` [Compound 1, Dovitinib, reference compound] as the compound, how does the “in vitro processing of pre-miR-21” value read?
**A.** Its value is “inhibited”.
